Experimental data taken from patent US20250340557A1, “PYRIMIDINE DERIVATIVE” (ASKA PHARMACEUTICAL CO., LTD., priority 2022, published 2025).

target: T1, human mPGES-1 (Homo sapiens, UniProt O14684); assay: Test for mPGES-1 inhibitory activity (microsomal enzyme, PGE2 EIA); format: biochemical; conditions: microsomes of COS-1 cells transfected with human mPGES-1 cDNA; PGH2 1 μM; 4° C., 4 minutes; PGE2 by EIA; read-out: h mPGES1 IC50
T1 construct: made in house; host or cells: COS-1 cells (transient transfection; microsomal fraction used as enzyme)
T1 sequence (O14684 1-152): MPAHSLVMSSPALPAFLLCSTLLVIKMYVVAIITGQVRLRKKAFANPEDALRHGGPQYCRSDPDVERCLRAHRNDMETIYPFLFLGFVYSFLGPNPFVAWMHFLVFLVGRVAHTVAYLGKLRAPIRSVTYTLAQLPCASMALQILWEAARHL
Procedure, shortened: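 IC50 values were derived from EIA-quantified PGE2 after a 4 min, 4 °C reaction with PGH2 at 1 μM final, stopped with ferric chloride/citric acid. Beforehand, compound (2% DMSO final) sat 15 min at 4 °C with human mPGES-1 microsomes from transiently transfected COS-1 cells. Buffer was sodium phosphate pH 7.2 containing 2.5 mM reduced glutathione and 1 mM EDTA.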

Row | SMILES | IC50 [nM]
1 | Cc1nc(-c2c(C(F)(F)F)ccc(CNC(=O)[C@H]3C[C@H](OCc4ccccc4C(F)(F)F)C3)c2F)[nH]c(=O)c1F [Example 215, trans-N-[2-fluoro-3-(5-fluoro-4-methyl-6-oxo-1,6-dihydropyrimidin-2-yl)-4-(trifluoromethyl)benzyl]-3-{[2-(trifluoromethyl)benzyl]oxy}cyclobutane-1-carboxamide] | 6.9
2 | Cc1nc(-c2c(C(F)(F)F)ccc(CNC(=O)[C@H]3C[C@H](OCc4cccc(C(F)(F)F)c4)C3)c2F)[nH]c(=O)c1F [Example 216, trans-N-[2-fluoro-3-(5-fluoro-4-methyl-6-oxo-1,6-dihydropyrimidin-2-yl)-4-(trifluoromethyl)benzyl]-3-{[3-(trifluoromethyl)benzyl]oxy}cyclobutane-1-carboxamide] | 16
3 | Cc1nc(-c2c(C(F)(F)F)ccc(CNC(=O)[C@H]3C[C@H](OCc4ccc(C(F)(F)F)cc4)C3)c2F)[nH]c(=O)c1F [Example 217, trans-N-[2-fluoro-3-(5-fluoro-4-methyl-6-oxo-1,6-dihydropyrimidin-2-yl)-4-(trifluoromethyl)benzyl]-3-{[4-(trifluoromethyl)benzyl]oxy}cyclobutane-1-carboxamide] | 16
4 | Cc1nc(-c2c(C(F)(F)F)ccc(CNC(=O)[C@H]3C[C@H](OCc4ccc(F)cc4F)C3)c2F)[nH]c(=O)c1F [Example 218, trans-3-[(2,4-difluorobenzyl)oxy]-N-[2-fluoro-3-(5-fluoro-4-methyl-6-oxo-1,6-dihydropyrimidin-2-yl)-4-(trifluoromethyl)benzyl]cyclobutane-1-carboxamide] | 13
5 | Cc1nc(-c2c(C(F)(F)F)ccc(CNC(=O)[C@H]3C[C@H](OCc4ccc(Cl)cc4F)C3)c2F)[nH]c(=O)c1F [Example 219, trans-3-[(4-chloro-2-fluorobenzyl)oxy]-N-[2-fluoro-3-(5-fluoro-4-methyl-6-oxo-1,6-dihydropyrimidin-2-yl)-4-(trifluoromethyl)benzyl]cyclobutane-1-carboxamide] | 15
6 | Cc1nc(-c2c(C(F)(F)F)ccc(CNC(=O)[C@H]3C[C@H](OCc4ccc(F)c(F)c4)C3)c2F)[nH]c(=O)c1F [Example 220, trans-3-[(3,4-difluorobenzyl)oxy]-N-[2-fluoro-3-(5-fluoro-4-methyl-6-oxo-1,6-dihydropyrimidin-2-yl)-4-(trifluoromethyl)benzyl]cyclobutane-1-carboxamide] | 15
7 | Cc1nc(-c2c(C(F)(F)F)ccc(CNC(=O)[C@H]3C[C@H](OCc4cc(F)cc(F)c4)C3)c2F)[nH]c(=O)c1F [Example 221, trans-3-[(3,5-difluorobenzyl)oxy]-N-[2-fluoro-3-(5-fluoro-4-methyl-6-oxo-1,6-dihydropyrimidin-2-yl)-4-(trifluoromethyl)benzyl]cyclobutane-1-carboxamide] | 14
8 | Cc1nc(-c2c(C(F)(F)F)ccc(CNC(=O)[C@H]3C[C@H](OCc4cccc(F)c4)C3)c2F)[nH]c(=O)c1F [Example 222, trans-N-[2-fluoro-3-(5-fluoro-4-methyl-6-oxo-1,6-dihydropyrimidin-2-yl)-4-(trifluoromethyl)benzyl]-3-[(3-fluorobenzyl)oxy]cyclobutane-1-carboxamide] | 15
9 | CCc1nc(-c2c(C(F)(F)F)ccc(CNC(=O)[C@H]3C[C@H](OCc4ccc(F)cc4F)C3)c2F)[nH]c(=O)c1F [Example 235, trans-3-[(2,4-difluorobenzyl)oxy]-N-[3-(4-ethyl-5-fluoro-6-oxo-1,6-dihydropyrimidin-2-yl)-2-fluoro-4-(trifluoromethyl)benzyl]cyclobutane-1-carboxamide] | 1.1
10 | CCc1nc(-c2c(C(F)(F)F)ccc(CNC(=O)[C@H]3C[C@H](OCc4ccc(F)c(F)c4)C3)c2F)[nH]c(=O)c1F [Example 237, trans-3-[(3,4-difluorobenzyl)oxy]-N-[3-(4-ethyl-5-fluoro-6-oxo-1,6-dihydropyrimidin-2-yl)-2-fluoro-4-(trifluoromethyl)benzyl]cyclobutane-1-carboxamide] | < 1
11 | CCc1nc(-c2c(C(F)(F)F)ccc(CNC(=O)[C@H]3C[C@H](OCc4cc(F)cc(F)c4)C3)c2F)[nH]c(=O)c1F [Example 238, trans-3-[(3,5-difluorobenzyl)oxy]-N-[3-(4-ethyl-5-fluoro-6-oxo-1,6-dihydropyrimidin-2-yl)-2-fluoro-4-(trifluoromethyl)benzyl]cyclobutane-1-carboxamide] | < 1

The next lines start with the values.

Row | IC50 [nM] | SMILES
12 | < 1 | Cc1nc(-c2c(C(F)(F)F)ccc(CNC(=O)[C@H]3C[C@H](OCc4cccc(F)c4F)C3)c2F)[nH]c(=O)c1F [Example 223, trans-3-[(2,3-difluorobenzyl)oxy]-N-[2-fluoro-3-(5-fluoro-4-methyl-6-oxo-1,6-dihydropyrimidin-2-yl)-4-(trifluoromethyl)benzyl]cyclobutane-1-carboxamide]
13 | < 1 | Cc1nc(-c2c(C(F)(F)F)ccc(CNC(=O)[C@H]3C[C@H](OCc4ccc(F)cc4Cl)C3)c2F)[nH]c(=O)c1F [Example 224, trans-3-[(2-chloro-4-fluorobenzyl)oxy]-N-[2-fluoro-3-(5-fluoro-4-methyl-6-oxo-1,6-dihydropyrimidin-2-yl)-4-(trifluoromethyl)benzyl]cyclobutane-1-carboxamide]
14 | < 1 | Cc1nc(-c2c(C(F)(F)F)ccc(CNC(=O)[C@H]3C[C@H](OCc4cccc(Cl)c4F)C3)c2F)[nH]c(=O)c1F [Example 225, trans-3-[(3-chloro-2-fluorobenzyl)oxy]-N-[2-fluoro-3-(5-fluoro-4-methyl-6-oxo-1,6-dihydropyrimidin-2-yl)-4-(trifluoromethyl)benzyl]cyclobutane-1-carboxamide]
15 | < 1 | Cc1nc(-c2c(C(F)(F)F)ccc(CNC(=O)[C@H]3C[C@H](OCc4cc(Cl)ccc4F)C3)c2F)[nH]c(=O)c1F [Example 226, trans-3-[(5-chloro-2-fluorobenzyl)oxy]-N-[2-fluoro-3-(5-fluoro-4-methyl-6-oxo-1,6-dihydropyrimidin-2-yl)-4-(trifluoromethyl)benzyl]cyclobutane-1-carboxamide]
16 | < 1 | Cc1nc(-c2c(C(F)(F)F)ccc(CNC(=O)[C@H]3C[C@H](OCc4ccc(F)c(Cl)c4)C3)c2F)[nH]c(=O)c1F [Example 227, trans-3-[(3-chloro-4-fluorobenzyl)oxy]-N-[2-fluoro-3-(5-fluoro-4-methyl-6-oxo-1,6-dihydropyrimidin-2-yl)-4-(trifluoromethyl)benzyl]cyclobutane-1-carboxamide]
17 | < 1 | Cc1nc(-c2c(C(F)(F)F)ccc(CNC(=O)[C@H]3C[C@H](OCc4cc(F)cc(Cl)c4)C3)c2F)[nH]c(=O)c1F [Example 228, trans-3-[(3-chloro-5-fluorobenzyl)oxy]-N-[2-fluoro-3-(5-fluoro-4-methyl-6-oxo-1,6-dihydropyrimidin-2-yl)-4-(trifluoromethyl)benzyl]cyclobutane-1-carboxamide]
18 | < 1 | CCc1nc(-c2c(C(F)(F)F)ccc(CNC(=O)[C@H]3C[C@H](OCc4ccccc4Cl)C3)c2F)[nH]c(=O)c1F [Example 229, trans-3-[(2-chlorobenzyl)oxy]-N-[3-(4-ethyl-5-fluoro-6-oxo-1,6-dihydropyrimidin-2-yl)-2-fluoro-4-(trifluoromethyl)benzyl]cyclobutane-1-carboxamide]
19 | < 1 | CCc1nc(-c2c(C(F)(F)F)ccc(CNC(=O)[C@H]3C[C@H](OCc4cccc(Cl)c4)C3)c2F)[nH]c(=O)c1F [Example 230, trans-3-[(3-chlorobenzyl)oxy]-N-[3-(4-ethyl-5-fluoro-6-oxo-1,6-dihydropyrimidin-2-yl)-2-fluoro-4-(trifluoromethyl)benzyl]cyclobutane-1-carboxamide]
20 | < 1 | CCc1nc(-c2c(C(F)(F)F)ccc(CNC(=O)[C@H]3C[C@H](OCc4ccc(Cl)cc4)C3)c2F)[nH]c(=O)c1F [Example 231, trans-3-[(4-chlorobenzyl)oxy]-N-[3-(4-ethyl-5-fluoro-6-oxo-1,6-dihydropyrimidin-2-yl)-2-fluoro-4-(trifluoromethyl)benzyl]cyclobutane-1-carboxamide]
21 | < 1 | CCc1nc(-c2c(C(F)(F)F)ccc(CNC(=O)[C@H]3C[C@H](OCc4ccccc4C(F)(F)F)C3)c2F)[nH]c(=O)c1F [Example 232, trans-N-[3-(4-ethyl-5-fluoro-6-oxo-1,6-dihydropyrimidin-2-yl)-2-fluoro-4-(trifluoromethyl)benzyl]-3-{[2-(trifluoromethyl)benzyl]oxy}cyclobutane-1-carboxamide]
22 | < 1 | CCc1nc(-c2c(C(F)(F)F)ccc(CNC(=O)[C@H]3C[C@H](OCc4cccc(C(F)(F)F)c4)C3)c2F)[nH]c(=O)c1F [Example 233, trans-N-[3-(4-ethyl-5-fluoro-6-oxo-1,6-dihydropyrimidin-2-yl)-2-fluoro-4-(trifluoromethyl)benzyl]-3-{[3-(trifluoromethyl)benzyl]oxy}cyclobutane-1-carboxamide]
23 | < 1 | CCc1nc(-c2c(C(F)(F)F)ccc(CNC(=O)[C@H]3C[C@H](OCc4ccc(C(F)(F)F)cc4)C3)c2F)[nH]c(=O)c1F [Example 234, trans-N-[3-(4-ethyl-5-fluoro-6-oxo-1,6-dihydropyrimidin-2-yl)-2-fluoro-4-(trifluoromethyl)benzyl]-3-{[4-(trifluoromethyl)benzyl]oxy}cyclobutane-1-carboxamide]
24 | < 1 | CCc1nc(-c2c(C(F)(F)F)ccc(CNC(=O)[C@H]3C[C@H](OCc4ccc(Cl)cc4F)C3)c2F)[nH]c(=O)c1F [Example 236, trans-3-[(4-chloro-2-fluorobenzyl)oxy]-N-[3-(4-ethyl-5-fluoro-6-oxo-1,6-dihydropyrimidin-2-yl)-2-fluoro-4-(trifluoromethyl)benzyl]cyclobutane-1-carboxamide]
